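These data come from cells grown in 96-well plates and exposed to compound for 48 hours at five concentrations. TGI: total growth inhibition.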

The test system of the first assay is ACHN renal. Kind of assay: NCI anticancer screen, dose series, 48 h.
Take `O=[N+]([O-])/C(C(Cl)=C(Cl)Cl)=C(\N1CCOCC1)n1nnc2ccccc21`: the TGI came out at 34.9 µM.

`O=c1c2c(oc3ccccc13)-c1ccccc1OC2` registered a TGI of over 100 µM.

For `CCc1c2c([nH]c(=S)c1C#N)CCC2`, the TGI was over 100 µM.

Regarding `O=C1/C(=C/c2cccc(F)c2)CCCc2ccccc21`, the TGI stood at 33.1 µM.

As for `COc1ccc2[nH]cc(CCNC(=O)[C@H](Cc3ccccc3)NC(=O)[C@@H](NCC(F)(F)F)C(C)C)c2c1`, the TGI stood at 67.7 µM.

`C=CCNC1=C2C[C@@H](C)C[C@@H](OC)[C@H](OC(=O)CCN)[C@H](C)/C=C(\C)[C@@H](OC(N)=O)[C@H](OC)/C=C\C=C(/C)C(=O)NC(=CC1=O)C2=O` returned a TGI of 25.2 µM.

`C1=NCCN2CCN(CCN=Cc3ccc(cc3)OCc3cccc(n3)COc3ccc1cc3)CC2` showed a TGI of over 50 µM.

As for `CCc1n[nH]c(=O)n1/N=C/c1c(O)ccc2ccccc12`, the TGI is over 100 µM.

`CCOC(=O)c1cccn1S(=O)(=O)c1cc(Cl)ccc1NC(=O)CC` gave a TGI of over 100 µM.

`C=CCN1C(=O)C=C(c2ccccc2)n2ncc3cccc1c32` displayed a TGI of over 100 µM.

For `CC(=O)OC1COC(n2c(O)c(N=NC(N)=S)c3cc(Br)ccc32)C(OC(C)=O)C1OC(C)=O` (stereo not drawn), the TGI is over 100 µM.

Take `CN(C)CCCSc1nc2ccccc2[nH]1`: the TGI is over 100 µM.

The next assay concerns SK-OV-3 ovarian. Kind of assay: NCI anticancer screen, dose series, 48 h.
Compound `O=C1/C(=C/c2cccc(Br)c2)CCc2ccccc21` showed a TGI of 47.2 µM.

On to `CC1C2(C)OC(=N)C(C#N)(C(c3ccccc3)O2)C1(C#N)C#N` (stereo not drawn), for which the TGI was over 100 µM.

Consider `O=C1NC2ON=C(c3ccccc3)C2C2ON=C(c3ccccc3)N12` (stereo not drawn), for which the TGI was over 100 µM.

`CCCCCCCCCCCCCCCCCCNC(=O)C(N)Cc1ccc(OCc2ccccc2)cn1` (stereo not drawn) registered a TGI of 40.2 µM.

With `O=[N+]([O-])/C(C(Cl)=C(Cl)Cl)=C(\N1CCOCC1)n1nnc2ccccc21`, the TGI worked out at 79.2 µM.

Compound `O=c1c2c(oc3ccccc13)-c1ccccc1OC2` displayed a TGI of 53.2 µM.

With `CCc1c2c([nH]c(=S)c1C#N)CCC2`, the TGI was over 100 µM.

`O=C1/C(=C/c2cccc(F)c2)CCCc2ccccc21` came in with a TGI of 68.2 µM.

The compound `COc1ccc2[nH]cc(CCNC(=O)[C@H](Cc3ccccc3)NC(=O)[C@@H](NCC(F)(F)F)C(C)C)c2c1` registered a TGI of 33.3 µM.

`C=CCNC1=C2C[C@@H](C)C[C@@H](OC)[C@H](OC(=O)CCN)[C@H](C)/C=C(\C)[C@@H](OC(N)=O)[C@H](OC)/C=C\C=C(/C)C(=O)NC(=CC1=O)C2=O` yielded a TGI of 11 µM.

For the compound `C1=NCCN2CCN(CCN=Cc3ccc(cc3)OCc3cccc(n3)COc3ccc1cc3)CC2`, the TGI was over 50 µM.

On to `CCc1n[nH]c(=O)n1/N=C/c1c(O)ccc2ccccc12`, for which the TGI was over 100 µM.

For the compound `CCOC(=O)c1cccn1S(=O)(=O)c1cc(Cl)ccc1NC(=O)CC`, the TGI is over 100 µM.

In turn, `C=CCN1C(=O)C=C(c2ccccc2)n2ncc3cccc1c32` returned a TGI of over 100 µM.

The compound `CC(=O)OC1COC(n2c(O)c(N=NC(N)=S)c3cc(Br)ccc32)C(OC(C)=O)C1OC(C)=O` (stereo not drawn) came in with a TGI of over 100 µM.

`CN(C)CCCSc1nc2ccccc2[nH]1` displayed a TGI of over 100 µM.

The subject of the next assay is TK-10 renal. Put plainly: NCI anticancer screen, dose series, 48 h.
For `O=C1/C(=C/c2cccc(Br)c2)CCc2ccccc21`, the TGI was found to be 31 µM.

For the compound `CC1C2(C)OC(=N)C(C#N)(C(c3ccccc3)O2)C1(C#N)C#N` (stereo not drawn), the TGI is over 100 µM.

`O=C1NC2ON=C(c3ccccc3)C2C2ON=C(c3ccccc3)N12` (stereo not drawn): the TGI was over 100 µM.

Regarding `CCCCCCCCCCCCCCCCCCNC(=O)C(N)Cc1ccc(OCc2ccccc2)cn1` (stereo not drawn), the TGI came to 28.8 µM.

`CN(C)Nc1cc(=O)[nH]c(=O)[nH]1` registered a TGI of over 100 µM.

For `O=[N+]([O-])/C(C(Cl)=C(Cl)Cl)=C(\N1CCOCC1)n1nnc2ccccc21`, the TGI was 63.8 µM.

Compound `O=c1c2c(oc3ccccc13)-c1ccccc1OC2` had a TGI of over 100 µM.

In turn, `CCc1c2c([nH]c(=S)c1C#N)CCC2` came in with a TGI of over 100 µM.

Compound `O=C1/C(=C/c2cccc(F)c2)CCCc2ccccc21` yielded a TGI of 29.1 µM.

With `COc1ccc2[nH]cc(CCNC(=O)[C@H](Cc3ccccc3)NC(=O)[C@@H](NCC(F)(F)F)C(C)C)c2c1`, the TGI came out at 57.4 µM.

In turn, `C=CCNC1=C2C[C@@H](C)C[C@@H](OC)[C@H](OC(=O)CCN)[C@H](C)/C=C(\C)[C@@H](OC(N)=O)[C@H](OC)/C=C\C=C(/C)C(=O)NC(=CC1=O)C2=O` had a TGI of 10.5 µM.

In turn, `C1=NCCN2CCN(CCN=Cc3ccc(cc3)OCc3cccc(n3)COc3ccc1cc3)CC2` had a TGI of over 50 µM.

Turning to `CCc1n[nH]c(=O)n1/N=C/c1c(O)ccc2ccccc12`, the TGI was over 100 µM.

The compound `CCOC(=O)c1cccn1S(=O)(=O)c1cc(Cl)ccc1NC(=O)CC` registered a TGI of over 100 µM.

As to `C=CCN1C(=O)C=C(c2ccccc2)n2ncc3cccc1c32`, the TGI was over 100 µM.

Regarding `CC(=O)OC1COC(n2c(O)c(N=NC(N)=S)c3cc(Br)ccc32)C(OC(C)=O)C1OC(C)=O` (stereo not drawn), the TGI was over 100 µM.

`CN(C)CCCSc1nc2ccccc2[nH]1` yielded a TGI of over 100 µM.

The test system of the next assay is MDA-N. Kind of assay: NCI anticancer screen, dose series, 48 h.
In turn, `O=C1/C(=C/c2cccc(Br)c2)CCc2ccccc21` had a TGI of 24.5 µM.

`CC1C2(C)OC(=N)C(C#N)(C(c3ccccc3)O2)C1(C#N)C#N` (stereo not drawn): the TGI is 44.4 µM.

Regarding `O=C1NC2ON=C(c3ccccc3)C2C2ON=C(c3ccccc3)N12` (stereo not drawn), the TGI was over 100 µM.

`CCCCCCCCCCCCCCCCCCNC(=O)C(N)Cc1ccc(OCc2ccccc2)cn1` (stereo not drawn): the TGI amounted to 49.2 µM.

`CN(C)Nc1cc(=O)[nH]c(=O)[nH]1` yielded a TGI of over 100 µM.

In turn, `O=[N+]([O-])/C(C(Cl)=C(Cl)Cl)=C(\N1CCOCC1)n1nnc2ccccc21` returned a TGI of 42.5 µM.

In turn, `O=c1c2c(oc3ccccc13)-c1ccccc1OC2` displayed a TGI of over 100 µM.

For `CCc1c2c([nH]c(=S)c1C#N)CCC2`, the TGI is over 100 µM.

In turn, `COc1ccc2[nH]cc(CCNC(=O)[C@H](Cc3ccccc3)NC(=O)[C@@H](NCC(F)(F)F)C(C)C)c2c1` returned a TGI of 34 µM.

As for `C=CCNC1=C2C[C@@H](C)C[C@@H](OC)[C@H](OC(=O)CCN)[C@H](C)/C=C(\C)[C@@H](OC(N)=O)[C@H](OC)/C=C\C=C(/C)C(=O)NC(=CC1=O)C2=O`, the TGI is 11.2 µM.

The compound `CCc1n[nH]c(=O)n1/N=C/c1c(O)ccc2ccccc12` had a TGI of over 100 µM.

`C=CCN1C(=O)C=C(c2ccccc2)n2ncc3cccc1c32` yielded a TGI of over 100 µM.

In turn, `CN(C)CCCSc1nc2ccccc2[nH]1` had a TGI of over 100 µM.

The next assay concerns OVCAR-4 ovarian. Kind of assay: NCI anticancer screen, dose series, 48 h.
Turning to `O=C1/C(=C/c2cccc(Br)c2)CCc2ccccc21`, the TGI was found to be 26.7 µM.

In turn, `CCCCCCCCCCCCCCCCCCNC(=O)C(N)Cc1ccc(OCc2ccccc2)cn1` (stereo not drawn) came in with a TGI of 34 µM.

Compound `CN(C)Nc1cc(=O)[nH]c(=O)[nH]1` yielded a TGI of over 100 µM.

Turning to `O=[N+]([O-])/C(C(Cl)=C(Cl)Cl)=C(\N1CCOCC1)n1nnc2ccccc21`, the TGI came out at 76.1 µM.

For the compound `CCc1c2c([nH]c(=S)c1C#N)CCC2`, the TGI was over 100 µM.

For `O=C1/C(=C/c2cccc(F)c2)CCCc2ccccc21`, the TGI came to 31.8 µM.

Consider `COc1ccc2[nH]cc(CCNC(=O)[C@H](Cc3ccccc3)NC(=O)[C@@H](NCC(F)(F)F)C(C)C)c2c1`, for which the TGI turned out to be 32.3 µM.

Compound `C=CCNC1=C2C[C@@H](C)C[C@@H](OC)[C@H](OC(=O)CCN)[C@H](C)/C=C(\C)[C@@H](OC(N)=O)[C@H](OC)/C=C\C=C(/C)C(=O)NC(=CC1=O)C2=O` gave a TGI of 21.3 µM.

`C1=NCCN2CCN(CCN=Cc3ccc(cc3)OCc3cccc(n3)COc3ccc1cc3)CC2` gave a TGI of over 50 µM.

`CCc1n[nH]c(=O)n1/N=C/c1c(O)ccc2ccccc12` came in with a TGI of over 100 µM.

(Values after PubChem BioAssay (NCI).)
